# Measured values reported in US20050171084A1, “Methods of treatment with lxr modulators” (priority 2002, published 2005).
# Columns and labels:
# [1] = tested on: SREBP-1c; assay: SREBP-1c gene expression in primary astrocyte cultures (QRT-PCR); format: cell-based, mouse; conditions: Astrocytes
# Description: (§1) Total RNA was isolated from tissue and cell culture samples using TRIzol reagent (GibcoBRL). Briefly, tissue samples were thawed directly in 1 ml Trizol/50 mg tissue and homogenized with a polytron. To facilitate recovery of nucleic acid, 100 μg glycogen (Ambion) was added. Cultured cells were lysed in 1 ml Trizol containing 100 μg glycogen per well. Samples were then extracted in chloroform and spun at 4° C. at 11,000×g for 15 min. The aqueous phase was collected and the RNA was precipitated with the addition of isopropanol. The samples were then spun at 11,000×g at 4° C. for 15 min, the pellet washed in 75% ethanol, dried, and dissolved in water. Samples were stored at −70° C. until use.
# (§2) Total RNA samples were diluted to 100 μg/ml and treated with 40 units/ml […] DNAse-I (Ambion) for 30 min at 37° C. followed by inactivation at 75° C. for 5 min. Samples were quantitated by spectrophotometry or with the RiboGreen assay (Molecular Probes) and diluted to a concentration of 10 ng/μl. […] In this system, the probe is degraded by Taq polymerase during the amplification phase, releasing the fluorescent tag from its quenched state; amplification data is expressed as the number of PCR cycles required to elevate the fluorescence signal beyond a threshold intensity level. […]
# [2] = tested on: ABCA1; assay: ABCA1 gene expression in primary neuron cultures (QRT-PCR); format: cell-based, mouse; conditions: Neurons
# Description: as §1, §2
# [3] = tested on: SREBP-1c; assay: SREBP-1c gene expression in the CNS after oral dosing; format: in vivo, C57 B1/6 mice; conditions: oral gavage, Example 1 10 mg kg twice daily, T0901317 50 mg/kg once daily
# Description: as §1
# Total RNA samples were diluted to 100 μg/ml and treated with 40 units/ml […] DNAse-I (Ambion) for 30 min at 37° C. followed by inactivation at 75° C. for 5 min. Samples were quantitated by spectrophotometry or with the RiboGreen assay (Molecular Probes) and diluted to a concentration of 10 ng/μl. Samples were then assayed in duplicate or triplicate 25-μl reactions using 25 ng RNA per reaction with Perkin Elmer chemistry on an ABI Prism 7700 (Perkin Elmer) according to manufacturer's instructions. Gene-specific primers were used at 7.5 or 22.5 pmol per reaction, optimized for each gene examined, and the gene-specific probe was used at 5 pmol per reaction. Primers and probe were synthesized by Keystone Labs (Camarillo, Calif.). In this system, the probe is degraded by Taq polymerase during the amplification phase, releasing the fluorescent tag from its quenched state; amplification data is expressed as the number of PCR cycles required to elevate the fluorescence signal beyond a threshold intensity level. Fold induction values were calculated by subtracting the mean threshold cycle number (Ct) for each treatment group from the mean Ct for the vehicle group and raising 2 to the power of this difference.
# Adult male C57 B1/6 mice (3 per group) were dosed by oral gavage with the LXR agonists Example 1, T0901317, or vehicle (0.5% methylcellulose). Example 1 was delivered at 10 mg kg twice daily, while T0901317 was administered at 50 mg/kg once daily. After 3 or 7 days' treatment, animals were killed and their brains removed. The cerebellum and both hippocampi were dissected and snap frozen in liquid nitrogen for RNA isolation. Total RNA was prepared from the hippocampus and cerebellum (black bars) and analyzed for gene expression patterns using QRT-PCR (as described above). Expression levels for each gene in each tissue were normalized to the average expression level in the vehicle group. Both LXR agonists enhanced ABCA1 expression relative to the vehicle-treated group, with the effect most pronounced in the cerebellum after 3 days' treatment.
# [4] = tested on: Primary murine neuronal cultures; assay: Cholesterol efflux from neurons; format: cell-based, mouse; conditions: standard deviation in parentheses
# Description: Primary murine neuronal cultures were prepared from C57 B1/6 mice essentially as described elsewhere (23). In brief, embryonic day 18 fetuses were collected by caesarian section, their brains removed and the cerebral cortices dissected from the rest of the brain. The tissue was rinsed during these steps several times in Ca^2+- and Mg^2+-free Hank's balanced salt solution (HBSS, containing 1 mM HEPES, GIBCO). After the meninges were removed with forceps, the tissue was minced and incubated for 15 minutes at 37° C. in 0.25% trypsin (Sigma) in HBSS. The tissue was then washed twice in HBSS and twice in neuronal plating media (minimal essential media [MEM] containing 3 mg/ml glucose, 5% fetal bovine serum [FBS; GibcoBRL], 5% horse serum [HS; GibcoBRL], 100 U/ml penicillin/100 μg/ml streptomycin [Irvine Scientific] and 2 mM glutamine [Irvine Scientific]) to which 10 μg/ml DNAseI (Sigma) had been added. […] The resulting cell pellet was resuspended in plating media, and trypan blue-excluding surviving cells were counted in a hemacytometer. […]
# Cholesterol efflux assays were performed as described elsewhere (24) with some modifications. […] Two hundred microliters of the culture media supernatant and 200 μl of the cell extract were counted for tritium in 2 ml Packard Ultima Gold Scint. […] Efflux is expressed as percent of the total radiolabeled cholesterol pool present in the cultures.
SREBP-1c expression normalized to vehicle-treated group (fold induction) [1],ABCA1 expression normalized to vehicle-treated group (fold induction) [2],Structure (SMILES),"SREBP-1c expression normalized to vehicle group ([3]; CB (cerebellum), first table)","SREBP-1c expression normalized to vehicle group ([3]; CB (cerebellum), second table)","SREBP-1c expression normalized to vehicle group ([3]; HC (hippocampus), first table)","SREBP-1c expression normalized to vehicle group ([3]; HC (hippocampus), second table)",Cholesterol efflux as a percentage of total [3H] cholesterol [4]
13.9,2.8,"O=C(O)Cc1cccc(OCCCN(Cc2cccc(C(F)(F)F)c2Cl)CC(c2ccccc2)c2ccccc2)c1 [Example 1, 2-(3-{3-[[2-Chloro-3-(trifluoromethyl)benzyl](2,2-diphenylethyl)amino]propoxy}-phenyl)acetic Acid]",2.05 (0.427),1.75 (0.236),2.22 (0.600),0.71 (0.327),1.252 (0.179) %
20.2,3.0,"O=S(=O)(c1ccccc1)N(CC(F)(F)F)c1ccc(C(O)(C(F)(F)F)C(F)(F)F)cc1 [Example T0901317, N-(2,2,2-trifluoroethyl)-N-[4-(2,2,2-trifluoro-1-hydroxy-1-trifluoromethyl-ethyl)-phenyl]-benzenesulfonamide]",3.44 (0.632),2.97 (0.557),2.68 (0.209),2.16 (0.110),1.427 (0.031) %
